From ChEMBL document CHEMBL5537197, “Discovery of Novel Coumarin-quinolinium Derivatives as Pan-KRAS Translation Inhibitors by Targeting 5'-UTR RNA G-Quadruplexes” (J Med Chem, 2024)
Active and inactive are the calls of the source. The calls are words filed in the database; no cut-off is given here.

How the values were obtained:
PANC-1 [1] = test: Cytotoxicity against human PANC-1 cells harboring KRAS G12D mutant assessed as cell growth inhibition incubated for 24 hrs by MTT assay; assay type: functional, cell-based; details: PANC-1, 24 h
MIA PaCa-2 [2] = test: Inhibition of cell proliferation of human MIA PaCa-2 cells at 0.32 to 1.25 uM incubated for 10 days by colony formation assay relative to control; assay type: functional; details: dose 0.32-1.25 µM, time 10 day
[3] = biological target: GTPase KRas (Homo sapiens) (UniProt P01116); test: Inhibition of KRAS in human MIA PaCa-2 cells assessed as decrease in mTOR phosphorylation incubated for 24 hrs by Western blot analysis; assay type: cell-based; details: dose 1.25-5 µM
MIA PaCa-2 [4] = test: Effect on total KRAS mRNA level in human MIA PaCa-2 cells xenografted in BALB/C-nu/nu mouse model at 2.5 to 5 mg/kg,ip everyday for 18 days by RT-qPCR analysis; assay type: functional, organism-based; details: dose 2.5-5 mg/kg, time 18.0 day
Quadruplex DNA [5] = test: Binding affinity to KRAS utr-z G-Quadruplex (unknown origin) assessed as dissociation constant by fluorescence spectroscopy; assay type: nucleic-acid assay
[6] = Cytotoxicity against human LX2 cells harboring wild-type KRAS assessed as cell growth inhibition incubated for 24 hrs by MTT assay; assay type: toxicity, cell-based, LX-2
[7] = Toxicity in BALB/C-nu/nu mouse model xenografted with human MIA PaCa-2 cells assessed as signs of distress at 2.5 to 5 mg/kg,ip everyday for 18 days; assay type: organism-based; details: in vivo, 432 h, dose 2.5-5 mg/kg, time 18 day
HCT-116 = test: Cytotoxicity against human HCT-116 cells harboring KRAS G13D mutant assessed as cell growth inhibition incubated for 24 hrs by MTT assay; assay type: functional, cell-based; details: HCT-116, 24 h
MIA PaCa-2 [8] = test: Antitumor activity against human MIA PaCa-2 cells xenografted in BALB/C-nu/nu mouse model assessed as tumor growth inhibition at 5 mg/kg,ip everyday for 18 days relative to control; assay type: functional; details: MIA PaCa-2, 432 h, time 18 day, read-out: TGI
HPAF-II = test: Cytotoxicity against human HPAF-II cells harboring KRAS G12D mutant assessed as cell growth inhibition incubated for 24 hrs by MTT assay; assay type: functional, cell-based
[9] = biological target: GTPase KRas (Homo sapiens) (UniProt P01116); test: Inhibition of KRAS in human MIA PaCa-2 cells assessed as decrease in total protein level at 1.25 to 5 uM incubated for 24 hrs by Western blot analysis; assay type: cell-based; details: dose 1.25-5 µM
[10] = Toxicity in BALB/C-nu/nu mouse model xenografted with human MIA PaCa-2 cells assessed as signs of discomfort at 2.5 to 5 mg/kg,ip everyday for 18 days; assay type: organism-based; details: in vivo, 432 h, dose 2.5-5 mg/kg, time 18 day
[11] = biological target: GTPase KRas (Homo sapiens) (UniProt P01116); test: Inhibition of KRAS in human MIA PaCa-2 cells at 2.5 uM incubated for 24 hrs by Western blot analysis; assay type: cell-based
[12] = biological target: GTPase KRas (Homo sapiens) (UniProt P01116); test: Inhibition of KRAS in human MIA PaCa-2 cells assessed as decrease in MEK phosphorylation at 2.5 uM by Western blot analysis; assay type: cell-based; details: time <= 24.0 hrs, TDE = time-dependent effect
PANC-1 [13] = test: Effect on KRAS mRNA level in human PANC-1 cells harboring KRAS G12D mutant at upto 5 uM incubated upto 48 hrs by RT-qPCR analysis; assay type: functional, cell-based
[14] = tested on: GTPase KRas (Homo sapiens), P01116 [G12C]; test: Inhibition of KRAS G12C mutant in human MIA PaCa-2 cells incubated for 24 hrs by Western blot analysis; assay type: cell-based; details: dose <= 5.0 µM
Quadruplex RNA = test: Inhibition of KRAS RNA G-Quadruplex (unknown origin) translation transfected in HEK293T cells assessed as decrease in relative luciferase activity upto 5 uM incubated for 24 hrs by Dual-luciferase reporter assay; assay type: cell-based
Quadruplex DNA [15] = test: Binding affinity to HP12 G-Quadruplex (unknown origin) assessed as dissociation constant by fluorescence spectroscopy; assay type: nucleic-acid assay
MIA PaCa-2 [16] = test: Antitumor activity against human MIA PaCa-2 cells xenografted in BALB/C-nu/nu mouse model assessed as decrease of tumor volume administered intraperitoneally everyday for 18 days; assay type: functional, cell-based; details: dose 2.5-5 mg/kg, route ip, time 18.0 day
MIA PaCa-2 [17] = test: Antitumor activity against human MIA PaCa-2 cells xenografted in BALB/C-nu/nu mouse model assessed as reduction in tumor weight at 2.5 to 5 mg/kg,ip everyday for 18 days; assay type: functional, organism-based; details: dose 2.5-5 mg/kg, time 18.0 day
Quadruplex DNA [18] = test: Binding affinity to TERRA G-Quadruplex (unknown origin) assessed as melting temperature at 25 uM at 25 to 95 degreeC by CD spectroscopy (reference value: 84.2 degreeC); assay type: nucleic-acid assay
[19] = biological target: GTPase KRas (Homo sapiens) (UniProt P01116); test: Inhibition of KRAS in human MIA PaCa-2 cells assessed as decrease in mTOR phosphorylation at 2.5 uM by Western blot analysis; assay type: cell-based; details: time <= 24.0 hrs, TDE = time-dependent effect
[20] = tested on: GTPase KRas (Homo sapiens), P01116 [G12C]; test: Inhibition of KRAS G12C mutant in human NCI-H358 cells at 2.5 uM by Western blot analysis; assay type: cell-based; details: time <= 48.0 hrs, TDE = time-dependent effect

Sequence of GTPase KRas (Homo sapiens) (P01116 whole entry, looked up): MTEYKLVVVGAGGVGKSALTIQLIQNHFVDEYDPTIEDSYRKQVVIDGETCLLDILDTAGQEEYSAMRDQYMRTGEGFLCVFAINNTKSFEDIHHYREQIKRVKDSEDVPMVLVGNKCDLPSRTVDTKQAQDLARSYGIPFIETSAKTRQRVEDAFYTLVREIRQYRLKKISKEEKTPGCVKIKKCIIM
Sequence of GTPase KRas (Homo sapiens), P01116 [G12C] (P01116 whole entry G12C): as the sequence (P01116 whole entry, looked up) above, with G12C counted along it

inhibition [3]: Dose-Dependent Effect
Kd (Quadruplex DNA [5]): 2.3 µM
inhibition [9]: Active
inhibition [11]: Active
inhibition [12]: Tde
inhibition [14]: Dose-Dependent Effect
Kd (Quadruplex DNA [15]): > 5 µM
Tm (Quadruplex DNA [18]): 81.2 °C
inhibition [19]: Tde
inhibition [20]: Tde
Compound: CCN(CC)c1ccc2cc(/C=C/c3ccc4cc(F)c(NCCN5CCCC5)cc4[n+]3C)c(=O)oc2c1.[I-]
IC50 (PANC-1 [1]): 5.6 µM
inhibition (INH) (MIA PaCa-2 [2]): 100%
Activity (MIA PaCa-2 [4]): inactive
IC50 at 24 h [6]: > 40 µM
Activity [7]: Non-Toxic
IC50 (HCT-116): 4 µM
inhibition in vivo at 5 mg/kg (MIA PaCa-2 [8]): 70.3%
IC50 (HPAF-II): 5.4 µM
Activity [10]: Non-Toxic
Activity (PANC-1 [13]): inactive
inhibition (Quadruplex RNA): Active
Activity (MIA PaCa-2 [16]): Dose-Dependent Effect
Activity (MIA PaCa-2 [17]): Active
